Experimental data reported in patent US20160235069A1, “N-ACRYLIMINO HETEROCYCLIC COMPOUNDS” (BASF SE, priority 2013, published 2016).
Read-outs that look alike come from different tables or passages of the source.

Columns and labels:
Assay type in all cases: in vivo
[1] = tested on: Myzus persicae; assay: Green peach aphid (Myzus persicae), systemic, artificial diet in 96-well plates; conditions: 72 h, read-out: mortality in comparison with untreated controls
Description: General conditions: If not otherwise specified, most test solutions are to be prepared as follows: The active compound is to be dissolved at the desired concentration in a mixture of 1:1 (vol:vol) distilled water:acteon. Further, the test solutions are to be prepared at the day of use (and, if not otherwise specified, in general at concentrations wt/vol).
For evaluating control of green peach aphid (Myzus persicae) through systemic means, the test unit consists of 96-well-microtiter plates containing liquid artificial diet under an artificial membrane.
The compounds are formulated using a solution containing 75% v/v water and 25% v/v DMSO. Different concentrations of formulated compounds are pipetted into the aphid diet, using a custom built pipetter, at two replications.
After application, 5-8 adult aphids are placed on the artificial membrane inside the microtiter plate wells. The aphids are then allowed to suck on the treated aphid diet and incubated at about 23+1° C. and about 50+5% relative humidity for 3 days. Aphid mortality and fecundity is then visually assessed.

[2] = tested on: Megoura viciae; assay: Vetch aphid (Megoura viciae), contact or systemic, broad bean leaf disks; conditions: foliar, 120 h, read-out: mortality in comparison with untreated controls
Procedure: For evaluating control of vetch aphid (Megoura viciae) through contact or systemic means the test unit consisted of 24-well-microtiter plates containing broad bean leaf disks.
The compounds were formulated using a solution containing 75% v/v water and 25% v/v DMSO. Different concentrations of formulated compounds were sprayed onto the leaf disks at 2.5 μl, using a custom built micro atomizer, at two replications.
After application, the leaf disks were air-dried and 5-8 adult aphids were placed on the leaf disks inside the microtiter plate wells. The aphids were then allowed to suck on the treated leaf disks and were incubated at about 23±1° C. and about 50±5% relative humidity for 5 days. Aphid mortality and fecundity was then visually assessed.

[3] = tested on: Aphis gossypii; assay: Cotton aphid (Aphis gossypii), sprayed potted plants; conditions: 72 h, read-out: mortality in comparison with untreated controls
[4] = tested on: Aphis craccivora; assay: Cowpea aphid (Aphis craccivora), sprayed potted cowpea plants; conditions: 72 h, read-out: mortality in comparison with untreated controls
Procedure: The active compound is dissolved at the desired concentration in a mixture of 1:1 (vol:vol) distilled water: acetone. Surfactant (Alkamuls® EL 620) is added at a rate of 0.1% (vol/vol). The test solution is prepared at the day of use.
Potted cowpea plants are colonized with approximately 50-100 aphids of various stages by manually transferring a leaf tissue cut from infested plant 24 hours before application. Plants are sprayed after the pest population has been recorded. Treated plants are maintained on light carts at about 28° C. Percent mortality is assessed after 72 hours.

[5] = tested on: Dichromothrips corbetti; assay: Orchid thrips (Dichromothrips corbetti), floral-immersion technique; conditions: 72 h, read-out: mortality in comparison with untreated controls
Procedure: Dichromothrips corbetti adults used for bioassay are obtained from a colony maintained continuously under laboratory conditions. For testing purposes, the test compound is diluted in a 1:1 mixture of acetone:water (vol:vol), plus 0.01% vol/vol Alkamuls® EL 620 surfactant.
Thrips potency of each compound is evaluated by using a floral-immersion technique. Plastic petri dishes are used as test arenas. All petals of individual, intact orchid flowers are dipped into treatment solution and allowed to dry. Treated flowers are placed into individual petri dishes along with about 20 adult thrips. The petri dishes are then covered with lids. All test arenas are held under continuous light and a temperature of about 28° C. for duration of the assay. After 3 days, the numbers of live thrips are counted on each flower, and along inner walls of each petri dish. The percent mortality is recorded 72 hours after treatment.

[6] = tested on: Nephotettix virescens; assay: Rice green leafhopper (Nephotettix virescens), sprayed rice seedlings; conditions: read-out: mortality in comparison with untreated controls
Procedure: (§1) Rice seedlings are cleaned and washed 24 hours before spraying. The active compounds are formulated in 50:50 acetone:water (vol:vol), and 0.1% vol/vol surfactant (EL 620) is added. Potted rice seedlings are sprayed with 5 ml test solution, air dried, placed in cages and inoculated with 10 adults. Treated rice plants are kept at about 28-29° C. and relative humidity of about 50-60%. Percent mortality is recorded after 72 hours.

[7] = tested on: Nilaparvata lugens; assay: Rice brown plant hopper (Nilaparvata lugens), sprayed rice seedlings; conditions: 72 h, read-out: mortality in comparison with untreated controls
Procedure: as §1, with “compounds is” for “compounds are”, “acetone:water (vol:vol)” for “acetone:water (vol:vol),”, “620) was” for “620) is”

[8] = tested on: Plutella xylostella; assay: Diamond back moth (Plutella xylostella), dipped cabbage leaves; conditions: 3rd instar larvae on dipped cabbage leaves, 72 hours after treatment, read-out: mortality in comparison with untreated controls
Procedure: The active compound is dissolved at the desired concentration in a mixture of 1:1 (vol:vol) distilled water: acetone. Surfactant (Kinetic HV) is added at a rate of 0.01% (vol/vol). The test solution is prepared at the day of use.
Leaves of cabbage were dipped in test solution and air-dried. Treated leaves were placed in petri dishes lined with moist filter paper and inoculated with ten 3rd instar larvae. Mortality was recorded 72 hours after treatment. Feeding damages were also recorded using a scale of 0-100%.

[9] = tested on: Anthonomus grandis; assay: Boll weevil (Anthonomus grandis), insect diet with eggs in 96-well plates; conditions: 120 h, read-out: mortality in comparison with untreated controls
Procedure: For evaluating control of boll weevil (Anthonomus grandis) the test unit consisted of 96-well-microtiter plates containing an insect diet and 5-10 A. grandis eggs.
The compounds were formulated using a solution containing 75% v/v water and 25% v/v DMSO. Different concentrations of formulated compounds were sprayed onto the insect diet at 5 μl, using a custom built micro atomizer, at two replications.
After application, microtiter plates were incubated at about 25±1° C. and about 75±5% relative humidity for 5 days. Egg and larval mortality was then visually assessed.

C=C(F)C(=O)/N=c1\ccccn1Cc1ccc(Cl)nc1 [Compound E1.3]
≥ 75%: mortality at 2500 ppm [1] | mortality at 2500 ppm [2] | mortality at 500 ppm [3] | mortality at 500 ppm [4] | mortality at 500 ppm [5] | mortality at 500 ppm ([6]; 72 h) | mortality at 500 ppm [7]

C=C(F)C(=O)/N=c1\ccccn1Cc1cnn(C)c1 [Compound E1.16]
≥ 75%: mortality at 2500 ppm ([1]; 2500 ppm, adult aphids on treated diet, 3 days) | mortality at 2500 ppm ([2]; 2500 ppm, adult aphids on sprayed leaf disks, 5 days) | mortality at 500 ppm ([6]; 500 ppm, adults on sprayed rice seedlings, after 72 hours) | mortality at 500 ppm [8]

CC(C)(C)C/C=C(\C#N)C(=O)/N=c1\ccccn1Cc1ccc(Cl)nc1 [Compound E1.28]
≥ 75%: mortality at 2500 ppm [1] | mortality at 2500 ppm [2] | mortality at 500 ppm [4] | mortality at 2500 ppm [9]
